Data taken from the NIST ThermoML archive (doi:10.1016/j.tca.2016.09.005).

Assay: xn = mol fraction of the nth substance listed
Settings: 100 kPa, Liquid; for speed of sound: Frequency=3 MHz, Sing-around technique in a fixed-path interferometer; for mass density: Vibrating tube method

OCCCO [propan-1,3-diol] + CCO
Settings | mass density, 283.15 K [kg/m3] | mass density, 293.15 K [kg/m3] | speed of sound, 283.15 K [m/s] | speed of sound, 293.15 K [m/s]
x2 = 0 | 1058.85 | 1052.61 | 1659.5 | 1636.3
x2 = 0.05 | 1049.7 | 1043.39 | 1642.4 | 1618.9
x2 = 0.1 | 1040.25 | 1033.87 | 1623.9 | 1600.1
x2 = 0.15 | 1030.34 | 1023.87 | 1605.2 | 1580.9
x2 = 0.2 | 1020.03 | 1013.44 | 1585.7 | 1560.9
x2 = 0.2499 | 1009.63 | 1003 | 1565.3 | 1540.2
x2 = 0.3004 | 998.62 | 991.91 | 1544.3 | 1518.7
x2 = 0.3502 | 987.34 | 980.54 | 1523 | 1496.8
x2 = 0.4 | 975.76 | 968.84 | 1501 | 1474.2
x2 = 0.4501 | 963.57 | 956.56 | 1478.2 | 1450.8
x2 = 0.5004 | 950.95 | 943.82 | 1454.4 | 1426.5
x2 = 0.5501 | 938.39 | 931.16 | 1431.2 | 1402.8
x2 = 0.6001 | 924.91 | 917.56 | 1406.4 | 1377.6
x2 = 0.65 | 911.17 | 903.69 | 1382.1 | 1352.5
x2 = 0.7 | 896.69 | 889.09 | 1356.6 | 1326.3
x2 = 0.7503 | 881.71 | 873.96 | 1331.1 | 1300.1
x2 = 0.8001 | 866.31 | 858.42 | 1304.9 | 1273.3
x2 = 0.8502 | 850.07 | 842.04 | 1278.5 | 1246.2
x2 = 0.9 | 833.71 | 825.51 | 1252.1 | 1219
x2 = 0.95 | 816.56 | 808.22 | 1225.1 | 1191.3
